From US20070078179A1, “Use of a fibrate and orlistat for the treatment of obesity” (Foumier Laboratories Ireland Limited, priority 2003, published 2007) come the findings set out here.

This experiment is described as follows: Effect of fenofibrate and orlistat co-administration on body weight of mice fed a high-fat diet. The format is in vivo. Conditions: for Gain: body weight gain over 6 weeks, * p<0.05 relative to Group 5 (standard diet); for Gain / Body weight after 6 weeks: mice fed with high-fat diet, drug p.o. mixed with the diet (fenofibrate 25 mg/kg, orlistat 2.5 mg/kg), mean±sem; for Body weight after 6 weeks: in g (unit assumed).

Experimental: This study was designed to evaluate the effects of using a combination of fenofibrate and orlistat on body weight. Method Animals: Mice weighing approximately 20 g were received from CERJ. They were put into individual cages in a temperature-, humidity- and light-controlled room (21-23° C., 12-12 h light-dark cycle). […] After acclimatization, they were randomized into groups of 20 animals, based on body weight. The experimental groups were: • a Group 1: mice fed with high-fat diet • Group 2: mice fed with high-fat diet, treated with fenofibrate 25 mg/kg p.o., mixed with the diet • Group 3: mice fed with high-fat diet, treated with orlistat 2.5 mg/kg p.o., mixed with the diet • Group 4: mice fed with high-fat diet, treated with fenofibrate 25 mg/kg p.o. and orlistat 2.5 mg/kg p.o., mixed with the diet • Group 5: mice fed with standard diet Statistics: All data are presented as mean±sem. Results were subjected to Dunnett's t test. A p<0.05 was considered significant.

In the case of `CC(C)OC(=O)C(C)(C)Oc1ccc(C(=O)c2ccc(Cl)cc2)cc1` [fenofibrate], the Gain was 7.60 ± 0.43* and the “Body weight after 6 weeks” value was determined as 27.25 ± 0.47.
Consider `CCCCCCCCCCC[C@@H](C[C@@H]1OC(=O)[C@H]1CCCCCC)OC(=O)[C@H](CC(C)C)NC=O` (relative stereo) [orlistat, [2S-[2α(R*),3β]]-N-formyl-L-leucine 1-[(3-hexyl-4-oxo-2-oxetanyl)methyl]dodecyl ester], for which the Gain is 7.59 ± 0.28* and the “Body weight after 6 weeks” value came out at 27.12 ± 0.39. Besides, the “Difference from mice with a standard diet (normalization of the body weight)” value (after 6 weeks of treatment, mice with a high-fat diet compared with mice with a standard diet, Dunnett's t test) is given as “significant difference”.
